The text below walks through data of patent US20230203017A1, “Protein Kinase C Beta Inhibitors and Uses Thereof” (priority 2021, published 2023).

“Also recorded” adds a separate entry of the source. Where a name gives a salt, the structure may show the parent alone.

Test [1] has as its target Recombinant PKCβ (Homo sapiens, UniProt P05771). The experiment in a line: PKCb assay: phosphorylation of Histone H3 (Ser10) by recombinant PKCβ, immunoblot, no lipid activator. The class given is biochemical. As to conditions: basal PKCb, lipid activator not included; P-Ser10-Histone H3 by immunoblotting, 30° C., 6 minutes. The procedure:
Recombinant PKCβ (11ng) was mixed with purified Histone H3 (20 ng) and incubated at 30° C. for 6 minutes and phosphorylated Histone H3 (P^ser10-Histone H3) assessed by immunoblotting using specific antibodies (FIG. 11). Lipid activator was not included our assay because we were interested in finding chemicals inhibiting PKCb in its basal state.

Test [2] deals with C57BL6 mouse model fed HFD or HFHC diet. In words: Efficacy of PKCβ inhibitors on diet-induced obesity and hepatic steatosis in C57BL6 mice. Type of test: in vivo. As to conditions: for liver TG levels: diet-fed mice (FIGS. 12H, 12I); for weight gain, intraperitoneal administration / weight gain, oral administration: mice on high fat diet; for weight gain, intraperitoneal administration: i.p. (FIG. 12C); for weight gain, oral administration: oral gavage (FIG. 12D). The procedure:
FIG. 12E compares food intake in mice fed HFD for and the indicated PKCb inhibitor was administered by i.p. FIG. 12F compares food intake in mice fed HFD and the indicated PKCb inhibitor was administered orally by gavage.
To test and compare therapeutic efficacy of these inhibitors, the following experiment was set up in a C57BL6 mouse model (20 animals per study). C57BL6 mice (7 week old male mice) were fed either HFD or HFHC diet and were either untreated or treated on the same day with an indicated PKCb inhibitor. The PKCb inhibitor was administered to these mice either by i.p. or oral gavage.
The inhibitors were administered by i.p. (FIG. 12C) or gavage (FIG. 12D).

Test [3] has as its system PKCβ activation of SREBP-1c. The experiment in a line: SREBP-1c transactivation, Gal4-luciferase reporter with constitutively active PKCβ in HepG2 cells. Type of test: cell-based, human. The note with it: LY333,531 5 μM, PD98059 20 μM, GSK690693 1 μM. The procedure: (Gal4)5-luciferase reporter plasmid (0.6 μg) was co-transfected with a plasmid encoding either Gal4-DNA binding region (Gal4-DBD) or activation domain of SREBP-1 c linked to Gal4-DNA binding domain (Gal4-DBD-SREBP-1AD) (0.3 μg) (23) and pCMV-8-galactosidase (0.1 μg), along with constitutively active PKCβ cDNA (0.1 μg), in human hepatoma HepG2 cells in the absence or presence of LY333,531 (5 μM), PD98059 (20 μM) or GSK690693 (1 μM). Fold induction represens luciferase activity on PKCβ transfection relative to basal expression level in the absence of PKCβ expression vector (taken as 1). Luciferase activity was normalized to β-galactosidase activity.
To determine whether PKCβ deficiency affected the activation of hepatic SREBP-1c, a plasmid was used in which activation domain of SREBP-1c is fused to the Gal4-DBD and evaluated the activation of a Gal4-responsive reporter plasmid by overexpressed PKCβ in the absence or presence of indicated inhibitor.

Sequence of Recombinant PKCβ (P05771 whole entry, species assumed): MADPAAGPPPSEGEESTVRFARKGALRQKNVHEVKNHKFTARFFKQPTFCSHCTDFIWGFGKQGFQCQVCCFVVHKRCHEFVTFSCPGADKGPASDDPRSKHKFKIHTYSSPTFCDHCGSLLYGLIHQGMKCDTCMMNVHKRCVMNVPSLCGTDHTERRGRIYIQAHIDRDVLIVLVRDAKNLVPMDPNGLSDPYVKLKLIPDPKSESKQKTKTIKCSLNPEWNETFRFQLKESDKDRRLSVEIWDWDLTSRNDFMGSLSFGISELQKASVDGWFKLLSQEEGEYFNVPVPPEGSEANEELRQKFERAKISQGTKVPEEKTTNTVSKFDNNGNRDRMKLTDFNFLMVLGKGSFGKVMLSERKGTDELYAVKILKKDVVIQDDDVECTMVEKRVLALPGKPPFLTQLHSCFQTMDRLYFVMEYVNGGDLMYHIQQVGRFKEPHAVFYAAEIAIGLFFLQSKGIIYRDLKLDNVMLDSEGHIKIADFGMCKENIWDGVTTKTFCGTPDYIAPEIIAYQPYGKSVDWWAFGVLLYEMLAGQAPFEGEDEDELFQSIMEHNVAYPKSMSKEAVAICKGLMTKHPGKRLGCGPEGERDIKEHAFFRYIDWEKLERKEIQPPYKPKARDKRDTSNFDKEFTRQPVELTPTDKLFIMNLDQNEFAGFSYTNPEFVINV

Take `N#CCCCCCn1cc(C2=C(c3cn(CCCCCC#N)c4ccccc34)C(=O)NC2=O)c2ccccc21` [INST3399]: the IC50 in test [1] stood at 0.05 µM. In test [2], the “liver TG levels” value is “reduces liver TG levels”; the “weight gain, intraperitoneal administration” value is “reduction in weight gain”; the “weight gain, oral administration” value is “caused an increase in weight gain; also recorded: greater weight gain relative to LY333531”.
Regarding `CN(C)C[C@@H]1CCn2cc(c3ccccc32)C2=C(C(=O)NC2=O)c2cn(c3ccccc23)CCO1` [LY333531, Ruboxistaurin hydrochloride, reference compound], the “activation of SREBP-1c plasmid by overexpressed PKCβ in presence of inhibitor” value in test [3] was “this activation was blocked”. In test [2], the “weight gain, intraperitoneal administration” value is recorded as “reduction in weight gain” and the “weight gain, oral administration” value was “caused an increase in weight gain”.
Consider `Cn1cc(-c2c(-c3c[nH]c4ccccc34)[nH][nH]c2=O)c2ccccc21` [INST5660], for which the IC50 in test [1] is 0.01 µM. In addition, in test [2], the “liver TG levels” value was “reducing diet-induced liver triglyceride level”. For the same compound, the diet-induced obesity entry in test [2] (mice (FIG. 12G)) is “reducing diet-induced obesity”.
